# Test system: Plasmodium falciparum
# Assay: GSK_TCMDC: Inhibition of Plasmodium falciparum 3D7 in whole erythrocytes, using parasite LDH activity as an index of growth.
# Assay type: functional, organism-based
# Conditions: Plasmodium falciparum, 3D7
row,Compound,XC50
1,Cc1cccc(CN2CCCN(Cc3ccc(C(=O)Nc4ccc(C)c(F)c4)cc3)CC2)c1,1060 nM
2,O=C(Nc1cccc(CN2CCN(C(=O)c3cccc(F)c3)CC2)c1)c1cccs1,372 nM
3,CC(C)(C(=O)Nc1ccc(C2CCC(NCC3CC3)CC2)c(Cl)c1)c1cccc(OC(F)F)c1 (centres undefined),968 nM
4,CCN(CCCN1CCCCC1)c1cc(C)nc(Nc2ccc(C)cc2C(F)(F)F)n1,544 nM
5,Oc1ccccc1CN1CCN(C(c2ccccc2)c2ccccc2)CC1,761 nM
6,Oc1ccccc1CCNCC1CCc2ccccc2C1 (centres undefined),689 nM
7,CC(C)c1ccc(CN2CCC(CNC(=O)c3cc(-c4ccc(N(C)C)cc4)cs3)C2)cc1 (centres undefined),1250 nM
8,Cn1c(NCc2cc(F)cc3c2OCOC3)nc2cc(Nc3ccnc(Nc4cccc(CS(C)(=O)=O)c4)n3)ccc21,149 nM
9,CCOC(=O)C1=C(C)N=c2sc(=Cc3cc(Cl)ccc3O)c(=O)n2C1c1ccc(OC)cc1 (centres undefined),746 nM
10,Cc1ccc(CC(C)NC[C@H](O)c2cccc(Cl)c2)cc1 (some centres undefined),860 nM
11,COc1ccc(C=NN=c2cc[nH]c3ccccc23)c2ccccc12,696 nM
12,O=S(=O)(c1ccccc1)n1ccc2cc(Nc3ncnc4cc(C#C[C@H]5CCCN5)sc34)ccc21,1070 nM
13,CCN1CCN(CCCNc2c3ccc(Cl)cc3nc3ccc(OC)cc23)CC1,149 nM
14,COc1ccc(NC(=O)[C@H](Cc2ccccc2)Nc2cc(C)nc(NCCc3ccccn3)n2)cc1,834 nM
15,CC1(C)N=C(NC(=O)c2ccc([N+](=O)[O-])cc2)N=C(N)N1OCc1ccc2ccccc2c1,7.57 nM
16,Cc1cc(N2CCNCC2)c2cc(NC(=O)Nc3ccc(Cl)c(Cl)c3)ccc2n1,313 nM
17,Cc1nc(N)nc(N)c1CCCOc1ccccc1Cl,224 nM
18,OC(CNc1ccnc(Nc2cccc(OCCCN3CCOCC3)c2)n1)c1ccccc1 (centres undefined),924 nM
19,COc1cc(F)c2ncc(Cl)c([C@H](O)CN3CCC(NCc4cc5c(cn4)OCCO5)CC3)c2c1,95.2 nM
20,O=C(/C=C/c1cc(C(F)(F)F)ccc1F)N1CCC(CN2CCC(c3c[nH]c4ccccc34)CC2)CC1,994 nM
21,CN(C)CC(=O)Nc1cccc(Nc2nccc(NCC(O)c3ccccc3)n2)c1 (centres undefined),983 nM
22,COc1ccc(CN2CCCN(Cc3cccc(NC(=O)c4cc5ccccc5s4)c3)CC2)cc1,842 nM
23,COc1cccc(Cc2cnc3nc(N)nc(N)c3c2C)c1,173 nM
24,O[C@H]1[C@H](OCc2ccc(-c3ccccc3)cc2)CC[C@@H]1N1CCCCC1,1060 nM
25,Cc1cc(N(C)CCCN2CCCCC2)nc(Nc2ccc(Cl)cc2)n1,188 nM

row,Compound,XC50
1,FC(F)(F)c1ccc2[nH]c(-c3ccc(-c4ccc(CNCCc5ccncc5)cc4)cc3)nc2c1,129 nM
2,COc1ccc2c(=NN=Cc3cccc(Cl)c3)cc(C)[nH]c2c1,732 nM
3,CC(C)C[C@H](NC(=O)c1cc2ccccc2s1)C(=O)N[C@H]1CCN(Cc2ccc(I)c(OC3CCN(C)C3)c2)C1 (some centres undefined),920 nM
4,N=C(N)NC(=O)Nc1cc(Br)c(Cl)c(Br)c1,765 nM
5,CC1(C)CCC(=Cc2ccc(Cl)cc2)CC1(O)Cn1ccnc1 (centres undefined),743 nM
6,O=C(C1CCCC1)N1CCOC(CCN2CCC(c3ccccc3)CC2)(c2ccc(Cl)c(Cl)c2)C1 (centres undefined),937 nM
7,COCC(C)n1c(SC(C)C(=O)Nc2cc([N+](=O)[O-])ccc2Cl)nc2ccccc2c1=O (centres undefined),229 nM
8,O=C(Nc1ccnc(N2CC3CC2CN3Cc2cccc(O)c2)c1)c1ccc(F)cc1 (centres undefined),1240 nM
9,CCN(CC)c1nc(-c2ccccc2)cc(-c2ccccc2)c1C#N,450 nM
10,CC(=O)Nc1cccc(C(=O)Nc2ccc(-c3ccc(-c4nc5cccc(C)c5[nH]4)s3)cc2)c1,1740 nM
11,Cc1cc(NCCC(=O)NCCc2ccccc2)nc(NCCc2ccc(F)cc2)n1,1080 nM
12,CCCC(C)NC(=O)C(N)Cc1cccc(I)c1 (centres undefined),975 nM
13,CS(=O)(=O)CCOCc1ccc(-c2ccc3ncnc(Nc4ccc(OCc5cccc(F)c5)c(Cl)c4)c3c2)o1,803 nM
14,CS(=O)(=O)NCCCNCc1cccc(-c2cccc(-c3nc4cc(C(F)(F)F)ccc4[nH]3)c2)c1,467 nM
15,CN1CCC(C(=O)Nc2ccc(-c3ccc(-c4nc5ccccc5[nH]4)s3)cc2)CC1,816 nM
16,CN(C)c1ccc(C(c2ccc(N(C)C)cc2)c2cc([N+](=O)[O-])ccc2Cl)cc1,911 nM
17,c1ccc(Oc2ccc(Nc3ccnc4cc(-c5cccc(CN6CCOCC6)c5)ccc34)cc2)cc1,336 nM
18,CC(C)CNCc1cccc(-c2cccc(CN(CCCN3CCN(C)CC3)C(=O)NC3CCCCC3)c2)c1,761 nM
19,O=C(Nc1ccc(-c2cccc(-c3nc4cc(F)ccc4[nH]3)c2)cc1)Nc1ccsc1,693 nM
20,O=C(/C=C/c1ccc(Cl)c(Cl)c1)Nc1cccc(CN2CCC(c3c[nH]c4ccc(O)cc34)CC2)c1,945 nM
21,N#Cc1ccc(CN2CCCN(Cc3cccc(NC(=O)c4cc5ccccc5s4)c3)CC2)cc1,907 nM
22,CCOc1cc(C(=O)NC2CC(C)(C)NC(C)(C)C2)ccc1-c1cc2cc(Cl)c(Cl)cc2[nH]1,770 nM
23,CC(C)C[C@H](NC(=O)[C@H](Cc1ccccc1)N(C[C@H](Cc1ccccc1)NC(=O)OC(C)(C)C)C(=O)C(F)(F)F)C(=O)NC1CCN(Cc2ccccc2)CC1,530 nM
24,CN(CC1CCC(NC(=O)/C=C/c2ccc(Cl)c(Cl)c2)CC1)C1CCC(c2c[nH]c3ccccc23)CC1 (centres undefined),837 nM
25,O=[N+]([O-])c1ccc2ncnc(Nc3ccc(F)c(Cl)c3)c2c1,709 nM

row,Compound,XC50
1,CCCCCc1cc(OCCN(C)C)cc2c1C(=O)CC(C)(C)O2,103 nM
2,c1cc(-c2ccc(CN3CCCC3)cc2)cc(-c2nc3ccccc3[nH]2)c1,690 nM
3,Cc1cc(C)cc(OCC(O)CN(Cc2cc(Cl)cc(Cl)c2)C(=O)Nc2ccc([N+](=O)[O-])cc2)c1 (centres undefined),804 nM
4,O=C(Nc1cccc(-c2ccc(-c3nc4cc(F)ccc4[nH]3)cc2)c1)c1csnn1,278 nM
5,CN(C)CCCOc1cccc(NC(=O)Nc2ccc(Cl)c(Cl)c2)c1,956 nM
6,O=C(NC1CCN(Cc2ccccc2)CC1)c1cccc(Nc2nc(-c3ccccc3)cs2)c1,1030 nM
7,Cc1cc(NC(=O)NCCN2CCC(NS(=O)(=O)c3ccc(C(F)(F)F)cc3)C2)c2ccccc2n1 (centres undefined),645 nM
8,Cc1cc(Cl)ccc1OC(C)C(=O)N1CCc2ccccc21 (centres undefined),668 nM
9,O=C(Nc1cccc(N2CCC(NCCCn3ccnc3)CC2)c1)c1cccc(C(F)(F)F)c1,1110 nM
10,Clc1ccc(CNCCCCCCCNCc2ccc(Cl)c(Cl)c2)cc1Cl,372 nM
11,COc1ccc(-c2cnc3ccc(NCCCO)nn23)cc1OC,672 nM
12,CCNc1cc(C)nc(Nc2ccc(C)cc2)n1,730 nM
13,c1cc2[nH]c(CCc3nc4cc(C5=NC6CCCCC6N5)ccc4[nH]3)nc2cc1C1=NC2CCCCC2N1 (centres undefined),230 nM
14,Cc1ccc(NC(=O)c2ccnc(N3CCN(c4ccncc4)CC3)c2)cc1F,873 nM
15,CC(C)c1ccc(NC(=O)NC2CCN(CCCCCNC(=O)/C=C/c3ccc(Cl)c(Cl)c3)CC2)cc1,674 nM
16,COc1ccc2cc(C=NNc3nc4ccccc4[nH]3)c(Cl)nc2c1,653 nM
17,O=C(NCCN1CCCc2ccccc21)C1CCN(c2nc(-c3ccc(Cl)cc3)no2)CC1,695 nM
18,Nc1ccc(-c2nc3cc(-c4ccc5[nH]c(-c6ccc(N)cc6)nc5c4)ccc3[nH]2)cc1,129 nM
19,Cc1cccc2nc(-c3ccc(-c4ccc(CN5CCCC(N)C5)cc4)cc3)[nH]c12 (centres undefined),350 nM
20,CC(=O)N1N=C(c2ccc(Cl)cc2)Sc2c1nc(-c1ccccc1)n2C(C)=O,493 nM
21,O=C(NCCCCCN1CCC(c2ccc(O)cc2)CC1)c1ccc(-c2ccccc2)cc1,929 nM
22,COC(=O)C1=CNC=C(C(=O)OC)C1c1ccc(Cl)c([N+](=O)[O-])c1,676 nM
23,CCN(CCNC(=O)Nc1cc(C(F)(F)F)cc(C(F)(F)F)c1)c1cccc(C)c1,804 nM
24,CCCCCCOc1ccc(C(=O)NCCCC2CCN(CCCCCNC(=O)C=Cc3ccc(Cl)c(Cl)c3)CC2)cc1,854 nM
25,CCN(CC)CCNc1cc(C)nc(NC(=N)Nc2ccc(Cl)cc2)n1,130 nM

row,Compound,XC50
1,O=C(NC1CC1)c1cnc(N2CCN(Cc3ccc(Cl)cc3)CC2)c(Cl)c1,847 nM
2,Brc1cccc(Nc2nccc(Nc3ccc(Oc4ccccc4)cc3)n2)c1,1010 nM
3,O=C(O)CCSc1ncnc2[nH]cnc12,129 nM
4,CN(C)CCCOc1ccc(CN2CCC(c3c[nH]c4ccc(NCC5CCCCC5)cc34)CC2)cc1,678 nM
5,Cc1ccc2nc(-c3ccc(C(=O)NCc4ccc(Cl)c(Cl)c4)cc3)[nH]c2c1C,790 nM
6,COCCn1c(C)cc(C(=O)CN2C(=O)NC(C)(c3ccc(C(C)(C)C)cc3)C2=O)c1C (centres undefined),475 nM
7,CCCCCN1CCCC(NS(=O)(=O)c2cccc(C(=O)Nc3cccc(C(F)(F)F)c3)c2)C1 (centres undefined),1070 nM
8,O=C(NCc1cccs1)[C@H](Cc1ccccc1)Nc1ccnc(NCC2CCCCC2)n1,1050 nM
9,N#Cc1ccc(N2CCN(Cc3ccc(-c4ccc(-c5nc6cc(C(F)(F)F)ccc6[nH]5)s4)cc3)CC2)nc1,814 nM
10,CNC(=O)NC1=NC(C)(C)N(OCCCOc2cc(Cl)c(Cl)cc2Cl)C(N)=N1,935 nM
11,CC1(C)N=C(N)N=C(N)N1OCc1cc2ccccc2cc1CON1C(N)=NC(N)=NC1(C)C,126 nM
12,COc1ccc(CC(=O)NC2CCN(c3ccnc4cc(Cl)ccc34)C2)cc1 (centres undefined),241 nM
13,O=C(NCCCCN1CCC(c2nc3ccccc3s2)CC1)c1cc2ccccc2[nH]1,1020 nM
14,Cc1cc(-c2ccc(CNC3CCN(C)CC3)cc2)ccc1S(=O)(=O)NCc1ccccc1,851 nM
15,CCCCCN1CCC(NS(=O)(=O)c2ccc(C(=O)Nc3cccc(C(F)(F)F)c3)cc2)C1 (centres undefined),995 nM
16,O=S(=O)(NCCN1CCCC1)c1ccc(-c2ccc(CNCc3ccc(F)cc3)cc2)cc1,794 nM
17,CN1CC[C@@H](Oc2cc(NC(=O)Nc3ccc(Cl)c(C(F)(F)F)c3)ccc2Cl)C1,994 nM
18,Oc1ccc(CCNc2nc(NCCOc3ccccc3-c3ccccc3)nc(N3CCNCC3)n2)cc1,1040 nM
19,COc1ccc2nccc([C@@H](O)CN3CCC(NCc4nc5ccccc5s4)CC3)c2c1,927 nM
20,c1ccc2c(NCCCCCCCCCNc3c4ccccc4nc4ccccc34)c3ccccc3nc2c1,298 nM
21,CCCN(C(=O)c1ccccc1C)c1nnc(-c2ccccc2C)s1,1110 nM
22,Cc1cc(N[C@@H](CC(C)C)C(=O)NC2CCCC2)nc(NCC2CCCCC2)n1,858 nM
23,Cc1ccc2c(=NN=Cc3ccc(Cl)cc3)cc(C)[nH]c2c1,945 nM
24,CCCCCCCN1CC[C@@H](CCCc2ccnc3ccc(OC)cc23)[C@@H](CNC)C1,211 nM
